Test systems include 786-0; A498; A549; CCRF-CEM; COLO 205; DU-145; HCT-116; HCT-15; Hs-578T; MDA-MB-435; NCI-H226; NCI-H522; OVCAR-3; PC-3; RXF 393; SK-OV-3; SW-620; TK-10; UACC-257; UACC-62.
Holding throughout (assay): growth of human tumour cells (NCI), 48 h

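Five concentrations, 48 hours, 96-well plates. GI50: concentration for 50% inhibition of growth.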 Calls of active or inactive are those of the source. Rule as the data show it: active = GI50 up to about 1.1 µM and inactive = higher.

Experimental findings from ChEMBL document CHEMBL1201862, “PubChem BioAssay data set” (2004) are described below.

Consider `Cc1cc(NC(=O)NC(=O)c2ccccc2NC(=O)C(C)N)ccc1Oc1ncc(Br)cn1` (stereo not given), for which the GI50 is 0.0559 µM (active) in the test on 786-0; 0.025 µM (active) in the test on A498; 0.153 µM (active) with A549; 0.0619 µM (active) in the test with CCRF-CEM; 0.0719 µM (active) in the test with COLO 205; 0.136 µM (active) with DU-145. The GI50 was 0.714 µM (active) in the test on HCT-116; 0.31 µM with HCT-15; 0.0159 µM (active) in the test on Hs-578T; 0.0254 µM (active) in the test on MDA-MB-435; 0.0703 µM (active) with NCI-H226; 0.0301 µM (active) in the test on NCI-H522. Also, the GI50 is 0.0196 µM (active) in the test on OVCAR-3; 0.0391 µM (active) in the test on PC-3; 0.0111 µM (active) in the test on RXF 393; 0.0178 µM (active) in the test with SK-OV-3; 0.185 µM (active) with SW-620; 1.22 µM (inactive) in the test with TK-10. Moreover, the GI50 is 0.547 µM (active) with UACC-257 and 0.0693 µM (active) with UACC-62.
With `Nc1ccc2c(SCc3ccc([N+](=O)[O-])cc3)c3ccccc3nc2c1`, the GI50 in the test with 786-0 is 7.52 µM (inactive); with A498, 22.5 µM (inactive); in the test with A549, 21.6 µM (inactive); with CCRF-CEM it was 1.35 µM (inactive); in the test on COLO 205 it was 2.28 µM (inactive); with DU-145 it was 13.4 µM (inactive). Moreover, the GI50 with HCT-116 is 7.53 µM (inactive); in the test on HCT-15, 13.5 µM; in the test on Hs-578T, 17.6 µM (inactive); in the test on MDA-MB-435 it was 14.5 µM (inactive); in the test with NCI-H226, 18.7 µM (inactive); with NCI-H522 it was 3.47 µM (inactive). In addition, the GI50 with OVCAR-3 is 15.8 µM (inactive); with PC-3, 16 µM (inactive); with RXF 393, 19.4 µM (inactive); with SK-OV-3, 20.5 µM (inactive); in the test with SW-620, 2.87 µM (inactive); in the test on TK-10, 11.9 µM (inactive). Further, the GI50 in the test on UACC-257 was 16.4 µM (inactive); with UACC-62, 16.3 µM (inactive).
On to `O=C1CCN/C(=N\C(=O)C(F)(F)F)N1CCc1c[nH]c2ccccc12`, for which the GI50 with 786-0, with A498, in the test with A549, in the test with CCRF-CEM, in the test on COLO 205 and with DU-145 was > 100 µM (inactive) each time. Moreover, the GI50 in the test with HCT-116 is > 100 µM (inactive); with HCT-15, more than 100 µM; in the test with Hs-578T, > 100 µM (inactive); in the test with MDA-MB-435, > 100 µM (inactive); in the test with NCI-H226, > 100 µM (inactive); in the test with NCI-H522, > 100 µM (inactive). Besides, the GI50 in the test with OVCAR-3, with PC-3, in the test on RXF 393, in the test on SK-OV-3, with SW-620 and with TK-10 was > 100 µM (inactive) throughout. Moreover, the GI50 in the test with UACC-257 and in the test on UACC-62 was > 100 µM (inactive) throughout.
`CCOC(=O)CCc1cc(=O)oc2cc(O)cc(O)c12`: the GI50 is > 100 µM (inactive) with 786-0; 50.1 µM (inactive) in the test with A498; > 100 µM (inactive) in the test on A549; > 100 µM (inactive) in the test with CCRF-CEM; > 100 µM (inactive) in the test on COLO 205; > 100 µM (inactive) in the test with DU-145. In addition, the GI50 is > 100 µM (inactive) with HCT-116; more than 100 µM in the test with HCT-15; > 100 µM (inactive) with Hs-578T; > 100 µM (inactive) with MDA-MB-435; > 100 µM (inactive) in the test with NCI-H226; > 100 µM (inactive) with NCI-H522. The GI50 in the test with OVCAR-3, with PC-3, in the test on RXF 393, in the test with SK-OV-3, with SW-620 and in the test with TK-10 was > 100 µM (inactive) in each case. Moreover, the GI50 in the test on UACC-257 and in the test on UACC-62 was > 100 µM (inactive) each time.
In the case of `COc1ccc(OC)c(-c2nc3n(c2/C=C2/C(=O)Nc4ccccc42)CCS3)c1`, the GI50 in the test on 786-0 is > 100 µM (inactive); in the test on A498 it was 48.5 µM (inactive); in the test with A549, 63.7 µM (inactive); with CCRF-CEM, 35 µM (inactive); in the test on COLO 205, 39.5 µM (inactive); in the test with DU-145 it was 64.4 µM (inactive). Further, the GI50 was 45.2 µM (inactive) in the test on HCT-116; 42.3 µM in the test with HCT-15; 44.8 µM (inactive) in the test with Hs-578T; 17.5 µM (inactive) with MDA-MB-435; > 100 µM (inactive) in the test on NCI-H226; 34 µM (inactive) with NCI-H522. The GI50 in the test with OVCAR-3 was 36.1 µM (inactive); in the test on PC-3 it was 86.5 µM (inactive); with RXF 393 it was 21.4 µM (inactive); in the test on SK-OV-3 it was 72.9 µM (inactive); in the test with SW-620, 40.9 µM (inactive); with TK-10 it was 41.2 µM (inactive). Moreover, the GI50 in the test with UACC-257 is 63.1 µM (inactive); with UACC-62, 48.4 µM (inactive).
Take `O=C(Oc1c(Cl)cc(C2(c3cc(Cl)c(OC(=O)c4ccccc4)c(Cl)c3)CCCCC2)cc1Cl)c1ccccc1`: the GI50 was 14.1 µM (inactive) with 786-0; 11.4 µM (inactive) in the test with A498; 12.3 µM (inactive) with A549; 8 µM (inactive) with CCRF-CEM; 5.78 µM (inactive) with COLO 205; 12.2 µM (inactive) in the test with DU-145. Further, the GI50 with HCT-116 was 13.2 µM (inactive); in the test on HCT-15 it was 11.9 µM; in the test with Hs-578T it was 14.8 µM (inactive); in the test on MDA-MB-435 it was 10.1 µM (inactive); with NCI-H226, 16.3 µM (inactive); in the test with NCI-H522 it was 13.7 µM (inactive). The GI50 in the test on OVCAR-3 was 10.9 µM (inactive); in the test on PC-3, 9.42 µM (inactive); with RXF 393, 11.5 µM (inactive); with SK-OV-3, 15.5 µM (inactive); with SW-620 it was 16.2 µM (inactive); in the test with TK-10, 16.7 µM (inactive). Also, the GI50 with UACC-257 was 12.7 µM (inactive); with UACC-62 it was 10.5 µM (inactive).
As for `CC1(C)C/C=C\CCC(O)C(O)CCC(C)(C)C1=O` (stereo not given), the GI50 with 786-0, in the test with A498, with A549, with CCRF-CEM, in the test with COLO 205 and with DU-145 was > 100 µM (inactive) throughout. In addition, the GI50 in the test on HCT-116 is > 100 µM (inactive); in the test on HCT-15, more than 100 µM; in the test on Hs-578T it was > 100 µM (inactive); in the test on MDA-MB-435, > 100 µM (inactive); with NCI-H226, > 100 µM (inactive); in the test with NCI-H522 it was 62.2 µM (inactive). Moreover, the GI50 in the test on OVCAR-3, in the test with PC-3, in the test with RXF 393, in the test on SK-OV-3, with SW-620 and in the test on TK-10 was > 100 µM (inactive) throughout. The GI50 in the test on UACC-257 and with UACC-62 was > 100 µM (inactive) in each case.
For the compound `N#Cc1cccc(N2C(=O)C3C4C=CC(C3C2=O)C2C(=O)N(c3cccc(C#N)c3)C(=O)C42)c1` (stereo not given), the GI50 is 33.1 µM (inactive) in the test with 786-0; 22.4 µM (inactive) in the test with A498; 51.2 µM (inactive) in the test with A549; 44.8 µM (inactive) in the test on CCRF-CEM; > 63.1 µM (inactive) in the test on COLO 205; > 100 µM (inactive) with DU-145. The GI50 in the test with HCT-116 was 21 µM (inactive); in the test with HCT-15, more than 63.1 µM; in the test on Hs-578T it was 40 µM (inactive); in the test with MDA-MB-435, > 100 µM (inactive); in the test with NCI-H226, 62.1 µM (inactive); with NCI-H522, 22.7 µM (inactive). Besides, the GI50 with OVCAR-3 was > 77.3 µM (inactive); in the test with PC-3, > 100 µM (inactive); in the test with RXF 393, 10.2 µM (inactive); with SK-OV-3, 17.1 µM (inactive); in the test with SW-620 it was > 100 µM (inactive); in the test with TK-10, 26.5 µM (inactive). Besides, the GI50 is > 63.1 µM (inactive) in the test on UACC-257 and 54 µM (inactive) in the test with UACC-62.
As to `CCN(CC)c1ccc(/C=C/C2=NN(c3cccc(S(=O)(=O)O)c3)C3(C2)C(Cl)C(=O)N3c2nc3ccccc3s2)cc1` (stereo not given), the GI50 in the test with 786-0 was 5.65 µM (inactive); with A498, 12 µM (inactive); in the test with A549 it was 11.2 µM (inactive); in the test with CCRF-CEM it was 1.83 µM (inactive); with COLO 205, 14.1 µM (inactive); with DU-145, 12.6 µM (inactive). The GI50 in the test on HCT-116 was 10.5 µM (inactive); in the test on HCT-15 it was 7.03 µM; in the test on Hs-578T, 14.4 µM (inactive); in the test on MDA-MB-435 it was 5.87 µM (inactive); in the test with NCI-H226, 13.1 µM (inactive); in the test with NCI-H522, 1.72 µM (inactive). For the same compound, the GI50 was 4.11 µM (inactive) in the test on OVCAR-3; 8.28 µM (inactive) in the test on PC-3; 3.98 µM (inactive) in the test with RXF 393; 12.4 µM (inactive) in the test with SK-OV-3; 10.2 µM (inactive) in the test on SW-620; 4.95 µM (inactive) in the test with TK-10. Also, the figures for the GI50 in the test on UACC-257 and with UACC-62 were 7.24 µM (inactive) and 7.91 µM (inactive), respectively.
Regarding `CC1=C(C#N)C2C(=C(N)Oc3ccccc32)C(N)=N1` (stereo not given), the GI50 in the test on 786-0 is 20.4 µM (inactive); in the test on A498, 24 µM (inactive); in the test with A549, 38.3 µM (inactive); in the test on CCRF-CEM, 30.1 µM (inactive); in the test with COLO 205, 26.1 µM (inactive); in the test with DU-145, 21.1 µM (inactive). Besides, the GI50 in the test on HCT-116 is 24.4 µM (inactive); with HCT-15 it was 17.9 µM; with Hs-578T, 26.1 µM (inactive); in the test on MDA-MB-435 it was 27.7 µM (inactive); in the test on NCI-H226 it was 12.2 µM (inactive); in the test with NCI-H522, 15.4 µM (inactive). For the same compound, the GI50 in the test on OVCAR-3 is 44.8 µM (inactive); in the test on PC-3, 33.3 µM (inactive); in the test with RXF 393, 22.7 µM (inactive); in the test with SK-OV-3, 8.38 µM (inactive); in the test on SW-620, 32.9 µM (inactive); in the test on TK-10, 21.1 µM (inactive). Besides, the GI50 in the test on UACC-257 was 20.1 µM (inactive); with UACC-62, 20.7 µM (inactive).
